Measured values taken from patent publication US12433881B2, “Nicotine tablet” (Fertin Pharma A/S, priority 2017, dated 2025).

Conditions: nicotine concentration increased from 100 microgram/mL to 14,000 microgram/mL

## CN1CCCC1c1cccnc1 (stereo not shown) [nicotine]
  change of permeability of nicotine across the buccal mucosa: decrease of about a factor of two
